Assay results reported in US20170190671A1, “BIS(ARYL)CATECHOL DERIVATIVES AS HERBICIDES” (E I DU PONT DE NEMOURS AND COMPANY, priority 2014, published 2017).

Experiments:
[1] = system: Italian ryegrass (Lolium multiflorum); experiment: Test C postemergence; format: in vivo; conditions: Lolium multiflorum, post-emergence, 336 h, Postemergence, scale 0 to 100, read-out: Plant response rating, Ryegrass, Italian
[2] = system: barnyardgrass (Echinochloa crus-galli); experiment: Test C postemergence; format: in vivo; conditions: Echinochloa crus-galli, post-emergence, Postemergence, scale 0 to 100, read-out: Plant response rating, Barnyardgrass
corn (Zea mays) = experiment: Test C postemergence; format: in vivo; conditions: Zea mays, post-emergence, 336 h, Postemergence, scale 0 to 100
[3] = system: galium (catchweed bedstraw, Galium aparine); experiment: Test C postemergence; format: in vivo; conditions: Galium, post-emergence, 336 h, Postemergence, scale 0 to 100, read-out: Plant response rating, Galium
[4] = system: johnsongrass (Sorghum halepense); experiment: Test C postemergence; format: in vivo; conditions: Sorghum halepense, post-emergence, 336 h, Postemergence, scale 0 to 100, read-out: Plant response rating, Johnsongrass
kochia (Kochia scoparia) = experiment: Test C postemergence; format: in vivo; conditions: Bassia scoparia, post-emergence, Postemergence, scale 0 to 100, read-out: Plant response rating, Kochia
[5] = system: large (Lg) crabgrass (Digitaria sanguinalis); experiment: Test C postemergence; format: in vivo; conditions: Digitaria sanguinalis, post-emergence, 336 h, Postemergence, scale 0 to 100, read-out: Plant response rating, Crabgrass, Large
[6] = system: morningglory (Ipomoea coccinea); experiment: Test C postemergence; format: in vivo; conditions: Ipomoea, post-emergence, 336 h, Postemergence, scale 0 to 100, read-out: Plant response rating, Morningglory
[7] = system: oilseed rape (Brassica napus); experiment: Test C postemergence; format: in vivo; conditions: Brassica napus, post-emergence, Postemergence, scale 0 to 100, read-out: Plant response rating, Oilseed Rape
[8] = system: pigweed (Amaranthus retroflexus); experiment: Test C postemergence; format: in vivo; conditions: Amaranthus retroflexus, post-emergence, 336 h, Postemergence, scale 0 to 100, read-out: Plant response rating, Pigweed
[9] = system: ragweed (common ragweed, Ambrosia elatior); experiment: Test C postemergence; format: in vivo; conditions: Ambrosia artemisiifolia, post-emergence, 336 h, Postemergence, scale 0 to 100, read-out: Plant response rating, Ragweed
soybean (Glycine max) = experiment: Test C postemergence; format: in vivo; conditions: Glycine max, post-emergence, Postemergence, scale 0 to 100, read-out: Plant response rating, Soybean
[10] = system: waterhemp (common waterhemp, Amaranthus rudis); experiment: Test C postemergence; format: in vivo; conditions: Amaranthus tuberculatus, post-emergence, Postemergence, scale 0 to 100, read-out: Plant response rating, Waterhemp
wild oat (Avena fatua) = experiment: Test C postemergence; format: in vivo; conditions: Avena fatua, post-emergence, Postemergence, scale 0 to 100, read-out: Plant response rating, Oat, Wild
[11] = system: winter wheat (Triticum aestivum); experiment: Test C postemergence; format: in vivo; conditions: Triticum aestivum, post-emergence, 336 h, Postemergence, scale 0 to 100, read-out: Plant response rating, Wheat

Q: With `Clc1cnc(Oc2cccc(Cl)c2Oc2ncc(Br)cn2)nc1` [Compound 17, 5-bromo-2-[2-chloro-6-[(5-chloro-2-pyrimidinyl)oxy]phenoxy]pyrimidine] as the compound, how does the pest or weed control at 31 g/ha ([1]; 31 g ai/ha) read?
A: The pest or weed control at 31 g/ha was 0%.

Q: And the pest or weed control at 62 g/ha ([1]; 62 g ai/ha)?
A: The pest or weed control at 62 g/ha was 0%.

Q: And the pest or weed control at 125 g/ha ([1]; 125 g ai/ha)?
A: Its pest or weed control at 125 g/ha is 5%.

Q: And the pest or weed control at 250 g/ha ([1]; 250 g ai/ha)?
A: Its pest or weed control at 250 g/ha is 15%.

Q: And the pest or weed control at 31 g/ha ([2]; 31 g ai/ha)?
A: The pest or weed control at 31 g/ha was 5%.

Q: And the pest or weed control at 62 g/ha ([2]; 62 g ai/ha)?
A: Its pest or weed control at 62 g/ha is 5%.

Q: What about the pest or weed control at 125 g/ha ([2]; 125 g ai/ha) of the same compound?
A: Its pest or weed control at 125 g/ha is 10%.

Q: And the pest or weed control at 250 g/ha ([2]; 250 g ai/ha)?
A: Its pest or weed control at 250 g/ha is 10%.

Q: What about the Corn plant response rating (crop injury, 0 = no effect, 100 = complete kill) at 31 g/ha (corn (Zea mays); 31 g ai/ha) of the same compound?
A: The Corn plant response rating (crop injury, 0 = no effect, 100 = complete kill) at 31 g/ha was 5%.

Q: And the Corn plant response rating (crop injury, 0 = no effect, 100 = complete kill) at 62 g/ha (corn (Zea mays); 62 g ai/ha)?
A: Its Corn plant response rating (crop injury, 0 = no effect, 100 = complete kill) at 62 g/ha is 20%.

Q: And the Corn plant response rating (crop injury, 0 = no effect, 100 = complete kill) at 125 g/ha (corn (Zea mays); 125 g ai/ha)?
A: The Corn plant response rating (crop injury, 0 = no effect, 100 = complete kill) at 125 g/ha was 20%.

Q: What about the Corn plant response rating (crop injury, 0 = no effect, 100 = complete kill) at 250 g/ha (corn (Zea mays); 250 g ai/ha) of the same compound?
A: The Corn plant response rating (crop injury, 0 = no effect, 100 = complete kill) at 250 g/ha was 15%.

Q: And the pest or weed control at 31 g/ha ([3]; 31 g ai/ha)?
A: Its pest or weed control at 31 g/ha is 70%.

Q: And the pest or weed control at 62 g/ha ([3]; 62 g ai/ha)?
A: The pest or weed control at 62 g/ha was 80%.

Q: What about the pest or weed control at 125 g/ha ([3]; 125 g ai/ha) of the same compound?
A: Its pest or weed control at 125 g/ha is 90%.

Q: What about the pest or weed control at 250 g/ha ([3]; 250 g ai/ha) of the same compound?
A: Its pest or weed control at 250 g/ha is 95%.

Q: And the pest or weed control at 31 g/ha ([4]; 31 g ai/ha)?
A: Its pest or weed control at 31 g/ha is 5%.

Q: And the pest or weed control at 62 g/ha ([4]; 62 g ai/ha)?
A: Its pest or weed control at 62 g/ha is 5%.

Q: And the pest or weed control at 125 g/ha ([4]; 125 g ai/ha)?
A: Its pest or weed control at 125 g/ha is 5%.

Q: What about the pest or weed control at 250 g/ha ([4]; 250 g ai/ha) of the same compound?
A: Its pest or weed control at 250 g/ha is 10%.

Q: What about the pest or weed control at 31 g/ha (kochia (Kochia scoparia); 31 g ai/ha) of the same compound?
A: Its pest or weed control at 31 g/ha is 90%.

Q: What about the pest or weed control at 62 g/ha (kochia (Kochia scoparia); 62 g ai/ha) of the same compound?
A: The pest or weed control at 62 g/ha was 90%.

Q: What about the pest or weed control at 125 g/ha (kochia (Kochia scoparia); 125 g ai/ha) of the same compound?
A: Its pest or weed control at 125 g/ha is 95%.

Q: What about the pest or weed control at 250 g/ha (kochia (Kochia scoparia); 250 g ai/ha) of the same compound?
A: The pest or weed control at 250 g/ha was 95%.

Q: What about the pest or weed control at 31 g/ha ([5]; 31 g ai/ha) of the same compound?
A: Its pest or weed control at 31 g/ha is 5%.

Q: What about the pest or weed control at 62 g/ha ([5]; 62 g ai/ha) of the same compound?
A: Its pest or weed control at 62 g/ha is 5%.

Q: What about the pest or weed control at 125 g/ha ([5]; 125 g ai/ha) of the same compound?
A: Its pest or weed control at 125 g/ha is 10%.

Q: What about the pest or weed control at 250 g/ha ([5]; 250 g ai/ha) of the same compound?
A: Its pest or weed control at 250 g/ha is 10%.

Q: And the pest or weed control at 31 g/ha ([6]; 31 g ai/ha)?
A: Its pest or weed control at 31 g/ha is 90%.

Q: And the pest or weed control at 62 g/ha ([6]; 62 g ai/ha)?
A: The pest or weed control at 62 g/ha was 90%.

Q: And the pest or weed control at 125 g/ha ([6]; 125 g ai/ha)?
A: The pest or weed control at 125 g/ha was 85%.

Q: And the pest or weed control at 250 g/ha ([6]; 250 g ai/ha)?
A: Its pest or weed control at 250 g/ha is 70%.

Q: What about the plant injury at 31 g/ha ([7]; 31 g ai/ha) of the same compound?
A: The plant injury at 31 g/ha was 50%.

Q: What about the plant injury at 62 g/ha ([7]; 62 g ai/ha) of the same compound?
A: Its plant injury at 62 g/ha is 50%.

Q: And the plant injury at 125 g/ha ([7]; 125 g ai/ha)?
A: Its plant injury at 125 g/ha is 80%.

Q: What about the plant injury at 250 g/ha ([7]; 250 g ai/ha) of the same compound?
A: The plant injury at 250 g/ha was 40%.

Q: And the pest or weed control at 31 g/ha ([8]; 31 g ai/ha)?
A: Its pest or weed control at 31 g/ha is 90%.

Q: What about the pest or weed control at 62 g/ha ([8]; 62 g ai/ha) of the same compound?
A: The pest or weed control at 62 g/ha was 95%.

Q: And the pest or weed control at 125 g/ha ([8]; 125 g ai/ha)?
A: Its pest or weed control at 125 g/ha is 98%.

Q: And the pest or weed control at 250 g/ha ([8]; 250 g ai/ha)?
A: The pest or weed control at 250 g/ha was 98%.

Q: And the pest or weed control at 31 g/ha ([9]; 31 g ai/ha)?
A: Its pest or weed control at 31 g/ha is 50%.

Q: And the pest or weed control at 62 g/ha ([9]; 62 g ai/ha)?
A: Its pest or weed control at 62 g/ha is 45%.

Q: What about the pest or weed control at 125 g/ha ([9]; 125 g ai/ha) of the same compound?
A: The pest or weed control at 125 g/ha was 60%.

Q: What about the pest or weed control at 250 g/ha ([9]; 250 g ai/ha) of the same compound?
A: The pest or weed control at 250 g/ha was 55%.

Q: And the plant injury at 31 g/ha (soybean (Glycine max); 31 g ai/ha)?
A: The plant injury at 31 g/ha was 55%.

Q: What about the plant injury at 62 g/ha (soybean (Glycine max); 62 g ai/ha) of the same compound?
A: Its plant injury at 62 g/ha is 80%.

Q: And the plant injury at 125 g/ha (soybean (Glycine max); 125 g ai/ha)?
A: Its plant injury at 125 g/ha is 90%.

Q: What about the plant injury at 250 g/ha (soybean (Glycine max); 250 g ai/ha) of the same compound?
A: Its plant injury at 250 g/ha is 90%.

Q: And the pest or weed control at 31 g/ha ([10]; 31 g ai/ha)?
A: The pest or weed control at 31 g/ha was 90%.

Q: And the pest or weed control at 62 g/ha ([10]; 62 g ai/ha)?
A: The pest or weed control at 62 g/ha was 95%.

Q: And the pest or weed control at 125 g/ha ([10]; 125 g ai/ha)?
A: Its pest or weed control at 125 g/ha is 95%.

Q: What about the pest or weed control at 250 g/ha ([10]; 250 g ai/ha) of the same compound?
A: Its pest or weed control at 250 g/ha is 98%.

Q: What about the pest or weed control at 31 g/ha (wild oat (Avena fatua); 31 g ai/ha) of the same compound?
A: Its pest or weed control at 31 g/ha is 0%.

Q: And the pest or weed control at 62 g/ha (wild oat (Avena fatua); 62 g ai/ha)?
A: The pest or weed control at 62 g/ha was 0%.

Q: And the pest or weed control at 125 g/ha (wild oat (Avena fatua); 125 g ai/ha)?
A: The pest or weed control at 125 g/ha was 5%.

Q: What about the pest or weed control at 250 g/ha (wild oat (Avena fatua); 250 g ai/ha) of the same compound?
A: Its pest or weed control at 250 g/ha is 15%.

Q: What about the plant injury at 31 g/ha ([11]; 31 g ai/ha) of the same compound?
A: The plant injury at 31 g/ha was 0%.

Q: And the plant injury at 62 g/ha ([11]; 62 g ai/ha)?
A: The plant injury at 62 g/ha was 0%.

Q: What about the plant injury at 125 g/ha ([11]; 125 g ai/ha) of the same compound?
A: The plant injury at 125 g/ha was 0%.

Q: And the plant injury at 250 g/ha ([11]; 250 g ai/ha)?
A: Its plant injury at 250 g/ha is 0%.

Q: And the melting point?
A: Its melting point is 166 to 169 °C.
